Biological target: T1, WIZ (Homo sapiens, UniProt O95785+Q96SW2)
T1 construct: expressed in transfected cells
Experiment: Quantification of WIZ protein levels in HiBit tag fusion protein assay (WIZ HiBit assay in 293T cells)
Format: cell-based
Settings: for Dmax at 25 µM / remaining activity at 25 µM: HEK-293T; for Dmax at 25 µM: 100 minus Amax at 25 uM, read-out: % degradation of WIZ (100-Amax); for remaining activity at 25 µM: DMSO-normalized, curve-fitted percentage of WIZ-HiBit remaining at 25 uM, read-out: WIZ Amax; for DC50: WIZ HiBit assay in 293T cells, 10-point, 5-fold dilution, highest concentration 25 μM, about 18 hours, read-out: WIZ AC50
Procedure: The HiBit system from Promega was used to develop high-throughput and quantitative assays to measure changes in WIZ protein levels in response to compounds. The HiBit tag was derived from a split Nanoluciferase and has the following protein sequence: […] (SEQ ID NO: 1). The complementary fragment of Nanoluciferase (known as LgBit, from Promega), was added to the HiBit tag to form an active Nanoluciferase enzyme whose activity can be precisely measured. In this way, the levels of a fusion protein with the HiBit tag can be quantified in cell lysates.
Lentiviral vectors, based on the Invitrogen™ pLenti6.2/V5 DEST backbone were constructed that places the HiBit tag upstream of WIZ and expressed the fusion protein from an HSVTK promotor.
To ensure moderate and consistent expression of the HiBit-WIZ fusion protein across all cells in the population, stable cell lines were constructed from cells harboring a single copy of the construct. Lentivirus packaged with the constructs were made using the ViraPower™kit from Invitrogen™. 293T cells from ATCC (Catalog number: CRL-3216), were infected with the virus at low multiplicity of infection and selected by 5 μg/mL blasticidin in culture media for 2 weeks.
The levels of HiBit-WIZ tagged fusion proteins in compound-treated cell lines were measured as follows:
On day 1, cells were diluted to 1.0×10^6 cells/ml in normal growth medium. 20 μL of cell suspension were plated in each well of a solid white 384-well plate. Plates were incubated overnight in a 37° C. and 5% CO2 humidified tissue culture incubator.
On day 2, serial dilutions of compounds were made in 384-well plates. Compound plates were set up with DMSO in columns 1, 2, 23, 24, and 10-point compound dilution series in column 3-12 and column 13-22. 10 mM stock solution of compound were placed into column 3 or 13 and a 1:5 serial dilution was carried out until there was a 10-point dilution series per compound. 50 nL of diluted compounds were transferred into the plated cells by Echo® (Labcyte) acoustic transfer. The highest concentration of compound was 25 μM. Plates were incubated overnight (about 18 hours) in a 37° C. and 5% CO2 humidified tissue culture incubator.
On day 3, plates were removed from the incubator and allowed to equilibrate at room temperature for 60 minutes. HiBit substrate (Nano-Glo® HiBit Lytic Detection System, Promega Catalogue number: N3050) was added as described by the manufacturers protocols. Plates were incubated at room temperature for 30 minutes and luminescence was read using an EnVision® reader (PerkinElmer®). Data was analyzed and visualized using the Spotfire® software package.
WIZ Amax reflects the DMSO-normalized, curve-fitted percentage of WIZ-HiBit remaining at 25 uM. It was calculated by normalizing DMSO controls to 100%, parametric curve fitting of the dose response data (10-point, 5-fold), followed by calculation of response at 25 uM using the fitted equation (nd=not determined).

T1 sequence (O95785 whole entry): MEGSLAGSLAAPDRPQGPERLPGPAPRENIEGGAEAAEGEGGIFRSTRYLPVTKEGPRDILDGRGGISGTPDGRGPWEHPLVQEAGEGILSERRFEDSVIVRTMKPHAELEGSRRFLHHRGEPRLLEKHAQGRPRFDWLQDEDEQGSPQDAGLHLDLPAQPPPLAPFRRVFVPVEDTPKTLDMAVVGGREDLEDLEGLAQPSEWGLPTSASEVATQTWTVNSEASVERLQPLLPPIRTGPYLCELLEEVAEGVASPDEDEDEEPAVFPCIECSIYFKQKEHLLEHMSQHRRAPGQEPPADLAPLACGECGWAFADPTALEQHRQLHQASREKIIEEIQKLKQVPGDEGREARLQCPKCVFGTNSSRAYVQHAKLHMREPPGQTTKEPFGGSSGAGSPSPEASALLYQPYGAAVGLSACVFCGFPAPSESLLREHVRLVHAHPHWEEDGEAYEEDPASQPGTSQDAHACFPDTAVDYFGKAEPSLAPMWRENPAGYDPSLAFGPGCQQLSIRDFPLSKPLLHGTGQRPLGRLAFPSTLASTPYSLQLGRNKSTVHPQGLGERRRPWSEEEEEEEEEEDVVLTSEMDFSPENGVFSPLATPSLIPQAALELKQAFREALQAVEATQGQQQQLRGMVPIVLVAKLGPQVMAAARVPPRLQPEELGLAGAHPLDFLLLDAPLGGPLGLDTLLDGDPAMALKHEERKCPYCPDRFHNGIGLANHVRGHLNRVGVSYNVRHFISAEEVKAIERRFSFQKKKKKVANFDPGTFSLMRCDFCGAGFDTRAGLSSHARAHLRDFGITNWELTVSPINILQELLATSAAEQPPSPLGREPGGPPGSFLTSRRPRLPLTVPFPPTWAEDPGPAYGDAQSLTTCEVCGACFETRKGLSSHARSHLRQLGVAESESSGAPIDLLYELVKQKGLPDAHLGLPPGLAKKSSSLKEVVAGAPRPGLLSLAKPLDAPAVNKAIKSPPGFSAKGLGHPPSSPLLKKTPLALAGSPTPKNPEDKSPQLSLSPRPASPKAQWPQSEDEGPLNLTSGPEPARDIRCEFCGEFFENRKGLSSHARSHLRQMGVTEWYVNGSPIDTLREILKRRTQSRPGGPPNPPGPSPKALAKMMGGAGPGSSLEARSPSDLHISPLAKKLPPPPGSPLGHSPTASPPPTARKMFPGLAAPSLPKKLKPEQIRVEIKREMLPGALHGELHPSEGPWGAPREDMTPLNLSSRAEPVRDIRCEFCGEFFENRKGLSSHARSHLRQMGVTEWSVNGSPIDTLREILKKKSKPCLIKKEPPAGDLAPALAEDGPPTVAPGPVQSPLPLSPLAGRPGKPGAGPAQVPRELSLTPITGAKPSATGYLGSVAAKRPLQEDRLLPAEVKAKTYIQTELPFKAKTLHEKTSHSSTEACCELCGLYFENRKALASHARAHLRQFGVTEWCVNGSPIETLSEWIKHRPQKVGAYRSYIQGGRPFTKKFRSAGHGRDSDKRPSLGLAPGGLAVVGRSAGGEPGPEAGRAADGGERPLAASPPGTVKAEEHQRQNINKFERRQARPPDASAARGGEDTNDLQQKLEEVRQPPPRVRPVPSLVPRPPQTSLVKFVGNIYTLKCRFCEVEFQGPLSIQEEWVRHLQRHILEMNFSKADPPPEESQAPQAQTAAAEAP
T1 sequence (Q96SW2 whole entry): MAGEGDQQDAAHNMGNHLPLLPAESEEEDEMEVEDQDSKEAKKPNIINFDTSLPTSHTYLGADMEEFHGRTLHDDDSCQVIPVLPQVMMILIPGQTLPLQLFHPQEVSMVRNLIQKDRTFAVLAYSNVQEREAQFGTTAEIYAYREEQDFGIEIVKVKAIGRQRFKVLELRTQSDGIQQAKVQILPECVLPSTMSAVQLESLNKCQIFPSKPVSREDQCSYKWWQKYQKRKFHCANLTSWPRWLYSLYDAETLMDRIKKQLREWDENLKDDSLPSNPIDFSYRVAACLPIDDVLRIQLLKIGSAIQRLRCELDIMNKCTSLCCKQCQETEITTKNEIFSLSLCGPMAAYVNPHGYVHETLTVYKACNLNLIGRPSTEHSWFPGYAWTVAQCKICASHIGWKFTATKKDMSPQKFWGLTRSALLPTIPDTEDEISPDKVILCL
T1 sequence (Q16531 whole entry partner): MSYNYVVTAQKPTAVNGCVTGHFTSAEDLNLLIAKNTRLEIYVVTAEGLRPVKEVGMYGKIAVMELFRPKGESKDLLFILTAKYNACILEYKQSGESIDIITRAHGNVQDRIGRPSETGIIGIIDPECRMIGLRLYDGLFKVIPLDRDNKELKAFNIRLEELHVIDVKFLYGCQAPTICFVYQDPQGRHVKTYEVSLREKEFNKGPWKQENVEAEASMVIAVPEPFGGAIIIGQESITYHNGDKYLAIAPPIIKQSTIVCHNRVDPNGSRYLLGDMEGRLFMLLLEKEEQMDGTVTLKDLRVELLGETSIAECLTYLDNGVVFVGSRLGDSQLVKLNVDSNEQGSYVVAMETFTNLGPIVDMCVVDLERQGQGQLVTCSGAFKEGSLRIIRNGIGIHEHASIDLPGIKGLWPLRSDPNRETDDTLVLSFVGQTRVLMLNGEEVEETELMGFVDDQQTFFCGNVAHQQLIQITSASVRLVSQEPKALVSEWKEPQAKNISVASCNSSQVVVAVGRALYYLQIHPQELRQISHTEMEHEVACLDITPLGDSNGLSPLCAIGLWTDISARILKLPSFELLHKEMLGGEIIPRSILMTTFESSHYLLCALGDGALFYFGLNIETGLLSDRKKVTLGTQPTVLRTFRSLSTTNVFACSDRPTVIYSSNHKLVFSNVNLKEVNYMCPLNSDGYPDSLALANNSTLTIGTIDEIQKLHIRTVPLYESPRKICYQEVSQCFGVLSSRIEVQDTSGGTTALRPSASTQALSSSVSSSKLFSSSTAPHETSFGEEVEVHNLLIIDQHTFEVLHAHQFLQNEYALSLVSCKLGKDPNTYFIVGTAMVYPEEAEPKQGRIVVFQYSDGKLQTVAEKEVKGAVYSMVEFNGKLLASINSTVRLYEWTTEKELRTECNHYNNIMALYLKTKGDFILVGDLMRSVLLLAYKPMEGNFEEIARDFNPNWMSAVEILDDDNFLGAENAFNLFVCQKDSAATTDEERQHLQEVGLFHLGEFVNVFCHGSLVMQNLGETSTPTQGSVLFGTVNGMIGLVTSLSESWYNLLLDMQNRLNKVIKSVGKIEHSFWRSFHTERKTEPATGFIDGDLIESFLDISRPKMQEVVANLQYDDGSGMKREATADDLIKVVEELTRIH

| Structure (SMILES) | Dmax at 25 µM | remaining activity at 25 µM | DC50 |
| --- | --- | --- | --- |
| CC(C)S(=O)(=O)N1CCC(Cc2ccc3onc(N4CCC(=O)NC4=O)c3c2)CC1 [Example 14, 1-(5-((1-(isopropylsulfonyl)piperidin-4-yl)methyl)benzo[d]isoxazol-3-yl)dihydropyrimidine-2,4(1H,3H)-dione] | 90% | 10% | 14 nM |
| O=C1CCN(c2noc3ccc(CN4CCN(CC5CCCCC5)CC4)cc23)C(=O)N1 [Example 21, 1-(5-((4-(cyclohexylmethyl)piperazin-1-yl)methyl)benzo[d]isoxazol-3-yl)dihydropyrimidine-2,4(1H,3H)-dione] | 90% | 10% | 19 nM |
| CN1CCN(Cc2ccc3onc(N4CCC(=O)NC4=O)c3c2)CC1 [Example 22, 1-(5-((4-methylpiperazin-1-yl)methyl)benzo[d]isoxazol-3-yl)dihydropyrimidine-2,4(1H,3H)-dione] | 91% | 9% | 10 nM |
| O=C1CCN(c2noc3ccc(CN4CCN(CC5CCOCC5)CC4)cc23)C(=O)N1 [Example 23, 1-(5-((4-((tetrahydro-2H-pyran-4-yl)methyl)piperazin-1-yl)methyl)benzo[d]isoxazol-3-yl)dihydropyrimidine-2,4(1H,3H)-dione] | 91% | 9% | 4 nM |
| CC(C)CN1CCN(Cc2ccc3onc(N4CCC(=O)NC4=O)c3c2)CC1 [Example 24, 1-(5-((4-isobutylpiperazin-1-yl)methyl)benzo[d]isoxazol-3-yl)dihydropyrimidine-2,4(1H,3H)-dione] | 89% | 11% | 37 nM |
| O=C1CCN(c2noc3ccc(CN4CCN(Cc5ccccc5)CC4)cc23)C(=O)N1 [Example 25, 1-(5-((4-benzylpiperazin-1-yl)methyl)benzo[d]isoxazol-3-yl)dihydropyrimidine-2,4(1H,3H)-dione] | 87% | 13% | 130 nM |
| O=C1CCN(c2noc3ccc(CN4CCN(Cc5cccnc5)CC4)cc23)C(=O)N1 [Example 26, 1-(5-((4-(pyridin-3-ylmethyl)piperazin-1-yl)methyl)benzo[d]isoxazol-3-yl)dihydropyrimidine-2,4(1H,3H)-dione] | 86% | 14% | 190 nM |
| O=C1CCN(c2noc3ccc(CN4CCN(Cc5cccc(F)c5)CC4)cc23)C(=O)N1 [Example 27, 1-(5-((4-(3-fluorobenzyl)piperazin-1-yl)methyl)benzo[d]isoxazol-3-yl)dihydropyrimidine-2,4(1H,3H)-dione] | 86% | 14% | 210 nM |
| C[C@H]1CN(Cc2ccc3onc(N4CCC(=O)NC4=O)c3c2)CCN1CC1CCCCC1 [Example 28, (S)-1-(5-((4-(cyclohexylmethyl)-3-methylpiperazin-1-yl)methyl)benzo[d]isoxazol-3-yl)dihydropyrimidine-2,4(1H,3H)-dione] | 90% | 10% | 5.4 nM |
| CC(C)CN1CCN(Cc2ccc3onc(N4CCC(=O)NC4=O)c3c2)C[C@@H]1C [Example 30, (S)-1-(5-((4-isobutyl-3-methylpiperazin-1-yl)methyl)benzo[d]isoxazol-3-yl)dihydropyrimidine-2,4(1H,3H)-dione] | 91% | 9% | 4.5 nM |
| C[C@H]1CN(Cc2ccc3onc(N4CCC(=O)NC4=O)c3c2)CCN1CC1CCOCC1 [Example 31, (S)-1-(5-((3-methyl-4-((tetrahydro-2H-pyran-4-yl)methyl)piperazin-1-yl)methyl)benzo[d]isoxazol-3-yl)dihydropyrimidine-2,4(1H,3H)-dione] | 91% | 9% | 6.9 nM |
| CC(C)CN1CCN(Cc2ccc3onc(N4CCC(=O)NC4=O)c3c2)[C@@H](C)C1 [Example 32, (S)-1-(5-((4-isobutyl-2-methylpiperazin-1-yl)methyl)benzo[d]isoxazol-3-yl)dihydropyrimidine-2,4(1H,3H)-dione] | 91% | 9% | 99 nM |
| CC(C)CN1CCN(Cc2ccc3onc(N4CCC(=O)NC4=O)c3c2)[C@H](C)C1 [Example 33, (R)-1-(5-((4-isobutyl-2-methylpiperazin-1-yl)methyl)benzo[d]isoxazol-3-yl)dihydropyrimidine-2,4(1H,3H)-dione] | 88% | 12% | 32 nM |
| CC(C)CN1CCN(Cc2ccc3onc(N4CCC(=O)NC4=O)c3c2)C[C@H]1C [Example 34, (R)-1-(5-((4-isobutyl-3-methylpiperazin-1-yl)methyl)benzo[d]isoxazol-3-yl)dihydropyrimidine-2,4(1H,3H)-dione] | 89% | 11% | 40 nM |
| CC(C)[C@H]1CN(Cc2ccc3onc(N4CCC(=O)NC4=O)c3c2)CCN1C [Example 37, (S)-1-(5-((3-isopropyl-4-methylpiperazin-1-yl)methyl)benzo[d]isoxazol-3-yl)dihydropyrimidine-2,4(1H,3H)-dione] | 80% | 20% | 260 nM |
| CC(C)[C@H]1CN(Cc2ccc3onc(N4CCC(=O)NC4=O)c3c2)CCN1CC1CCOCC1 [Example 38, (S)-1-(5-((3-isopropyl-4-((tetrahydro-2H-pyran-4-yl)methyl)piperazin-1-yl)methyl)benzo[d]isoxazol-3-yl)dihydropyrimidine-2,4(1H,3H)-dione] | 76% | 24% | 140 nM |
| CC(C)(C)OC(=O)N1CCCC(Cc2ccc3onc(N4CCC(=O)NC4=O)c3c2)C1 (stereo not drawn) [Example 42, tert-butyl 3-((3-(2,4-dioxotetrahydropyrimidin-1 (2H)-yl)benzo[d]isoxazol-5-yl)methyl)piperidine-1-carboxylate] | 82% | 18% | 1010 nM |
| O=C1CCN(c2noc3ccc(CC4CCCNC4)cc23)C(=O)N1 (stereo not drawn) [Example 43, 1-(5-(piperidin-3-ylmethyl)benzo[d]isoxazol-3-yl)dihydropyrimidine-2,4(1H,3H)-dione] | 78% | 22% | 940 nM |
| O=C1CCN(c2noc3ccc(CC4CCCN(CC5CCCCC5)C4)cc23)C(=O)N1 (stereo not drawn) [Example 44, 1-(5-((1-(cyclohexylmethyl)piperidin-3-yl)methyl)benzo[d]isoxazol-3-yl)dihydropyrimidine-2,4(1H,3H)-dione] | 77% | 23% | 475 nM |
| CN1CCCC(Cc2ccc3onc(N4CCC(=O)NC4=O)c3c2)C1 (stereo not drawn) [Example 45, 1-(5-((1-methylpiperidin-3-yl)methyl)benzo[d]isoxazol-3-yl)dihydropyrimidine-2,4(1H,3H)-dione] | 77% | 23% | 240 nM |
| CC(C)CN1CCCC(Cc2ccc3onc(N4CCC(=O)NC4=O)c3c2)C1 (stereo not drawn) [Example 46, 1-(5-((1-isobutylpiperidin-3-yl)methyl)benzo[d]isoxazol-3-yl)dihydropyrimidine-2,4(1H,3H)-dione] | 77% | 23% | 197 nM |
| CC(C)(C)OC(=O)N1CCC(Cc2ccc3onc(N4CCC(=O)NC4=O)c3c2)C1 (stereo not drawn) [Example 47, tert-butyl 3-((3-(2,4-dioxotetrahydropyrimidin-1 (2H)-yl)benzo[d]isoxazol-5-yl)methyl)pyrrolidine-1-carboxylate] | 85% | 15% | 397 nM |
| O=C1CCN(c2noc3ccc(CC4CCNC4)cc23)C(=O)N1 (stereo not drawn) [Example 48, 1-(5-(pyrrolidin-3-ylmethyl)benzo[d]isoxazol-3-yl)dihydropyrimidine-2,4(1H,3H)-dione] | 77% | 23% | 1160 nM |

Reference: patent US20250276964A1 (Novartis AG, priority 2021, published 2025)
